Key:
[1] = system: KG1 cells; assay: Real time qPCR of mRNAs encoding glycosyltransferases in KG1 cells; format: cell-based, human; parameters: key to AVG ΔCt (Ct(GOI) − Ave Ct (HKG)) Test Sample: Ct of gene of interest minus average housekeeping-gene Ct; key to Fold Change Test Sample/Control Sample: ratio of 2^(−ΔCt) treated / 2^(−ΔCt) control; details: KG1, 100 nM 5-AZA, 96 hours
Experimental: To address the hypothesis that hypomethylation led to enhanced expression of glycosyltransferases, KG1 cells were cultured in the presence or absence of 100 nM 5-AZA for 96 hours followed by real time qPCR analysis of mRNAs encoding relevant glycosyltransferases. Fresh 5-AZA was added to the culture daily. Approximately 1×10^6 cells were pelleted by centrifugation at 250×g for 10 minutes then snap frozen on dry ice. Total RNA was extracted and purified using a QIAGEN RNeasy® Kit with an on-column DNase treatment step (QIAGEN Cat. No. 74104). The fold-change (2^(−Delta Ct)) is the normalized gene expression (2^(−Delta Ct)) in the 5-AZA treated sample divided the normalized gene expression (2^(−Delta Ct)) in the control sample.
In Table 1, fold-regulation represents fold-change results in a biologically meaningful way. Fold-change values greater than one indicate a positive- or an up-regulation, and the fold-regulation is equal to the fold-change. Fold-change values less than one indicate a negative or down-regulation, and the fold-regulation is the negative inverse of the fold-change. Additionally, p-values in Table 1 were calculated based on a Student's t-test of the replicate 2^(−Delta Ct) values for each gene in the control group and treatment groups.

[2] = system: human MSC; assay: CD44 surface expression in MSC exposed to soluble E-selectin; format: cell-based; details: MSC in vitro
Description: To determine if E-selectin has indispensable effects in bone marrow niche component cells, healthy donor derived-mesenchymal stroma cells (MSC) were exposed to increasing concentrations of E-selectin. […] Abrogation of E-selectin binding by Compound A diminished CD44 expression in vitro.

[3] = system: HUVECs co-cultured with AML cells; assay: eNOS phosphorylation in HUVECs co-cultured with AML cells; format: cell-based; parameters: dose or concentration left out as unconfirmed
[4] = system: luc-MV4.11 cells; assay: MV4.11 AML model survival; format: in vivo, NSG mice; details: 40 mg/kg Compound A i.p., 100 mg/kg venetoclax oral, 14 days once daily
Experimental: To evaluate the efficacy of targeting E-selectin with Compound A in combination with venetoclax, an in vivo MV4.11 AML model was employed (FIG. 16).
luc-MV4.11 cells (5×10^6 cells/mouse) were transplanted into NSG mice. Mice were divided into four groups: vehicle treatment only; 40 mg/kg of Compound A (intraperitoneal, 14 day once daily); 100 mg/kg venetoclax (oral, 14 days once daily), and a combination of 40 mg/kg Compound A and 100 mg/kg venetoclax. Drug treatment was initiated on day 10 post-transplantation.

## Nc1ncn([C@@H]2O[C@H](CO)[C@@H](O)[C@H]2O)c(=O)n1 [5-azacitidine]
[1]; ACTB
  2^-ΔCt Test Sample: 5.5E−01
  AVG ΔCt (Ct(GOI) − Ave Ct (HKG)) Test Sample: 0.87
  Fold Change Test Sample/Control Sample: 0.58
  Fold Up- or Down-Regulation Test Sample/Control Sample: −1.73
[1]; B3GNT5
  2^-ΔCt Test Sample: 2.3E−03
  AVG ΔCt (Ct(GOI) − Ave Ct (HKG)) Test Sample: 8.74
  Fold Change Test Sample/Control Sample: 2.36
  Fold Up- or Down-Regulation Test Sample/Control Sample: 2.36
[1]; CDKN1C
  2^-ΔCt Test Sample: 6.1E−04
  AVG ΔCt (Ct(GOI) − Ave Ct (HKG)) Test Sample: 10.69
  Fold Change Test Sample/Control Sample: 1.24
  Fold Up- or Down-Regulation Test Sample/Control Sample: 1.24
[1]; FUT3
  2^-ΔCt Test Sample: 3.3E−05
  AVG ΔCt (Ct(GOI) − Ave Ct (HKG)) Test Sample: 14.89
  Fold Change Test Sample/Control Sample: 1.42
  Fold Up- or Down-Regulation Test Sample/Control Sample: 1.42
[1]; FUT4
  2^-ΔCt Test Sample: 3.6E−05
  AVG ΔCt (Ct(GOI) − Ave Ct (HKG)) Test Sample: 14.78
  Fold Change Test Sample/Control Sample: 0.98
  Fold Up- or Down-Regulation Test Sample/Control Sample: −1.02
[1]; FUT5
  2^-ΔCt Test Sample: 3.3E−05
  AVG ΔCt (Ct(GOI) − Ave Ct (HKG)) Test Sample: 14.89
  Fold Change Test Sample/Control Sample: 1.03
  Fold Up- or Down-Regulation Test Sample/Control Sample: 1.03
[1]; FUT6
  2^-ΔCt Test Sample: 9.3E−05
  AVG ΔCt (Ct(GOI) − Ave Ct (HKG)) Test Sample: 13.39
  Fold Change Test Sample/Control Sample: 3.27
  Fold Up- or Down-Regulation Test Sample/Control Sample: 3.27
[1]; FUT7
  2^-ΔCt Test Sample: 3.0E−04
  AVG ΔCt (Ct(GOI) − Ave Ct (HKG)) Test Sample: 11.71
  Fold Change Test Sample/Control Sample: 10.15
  Fold Up- or Down-Regulation Test Sample/Control Sample: 10.15
[1]; FUT9
  2^-ΔCt Test Sample: 4.4E−05
  AVG ΔCt (Ct(GOI) − Ave Ct (HKG)) Test Sample: 14.46
  Fold Change Test Sample/Control Sample: 1.92
  Fold Up- or Down-Regulation Test Sample/Control Sample: 1.92
[1]; GAPDH
  2^-ΔCt Test Sample: 1.8E+00
  AVG ΔCt (Ct(GOI) − Ave Ct (HKG)) Test Sample: −0.87
  Fold Change Test Sample/Control Sample: 1.73
  Fold Up- or Down-Regulation Test Sample/Control Sample: 1.73
[1]; ST3GAL3
  2^-ΔCt Test Sample: 5.0E−04
  AVG ΔCt (Ct(GOI) − Ave Ct (HKG)) Test Sample: 10.95
  Fold Change Test Sample/Control Sample: 1.07
  Fold Up- or Down-Regulation Test Sample/Control Sample: 1.07
[1]; ST3GAL4
  2^-ΔCt Test Sample: 6.9E−03
  AVG ΔCt (Ct(GOI) − Ave Ct (HKG)) Test Sample: 7.17
  Fold Change Test Sample/Control Sample: 2.78
  Fold Up- or Down-Regulation Test Sample/Control Sample: 2.78
[1]; ST3GAL6
  2^-ΔCt Test Sample: 2.0E−02
  AVG ΔCt (Ct(GOI) − Ave Ct (HKG)) Test Sample: 5.66
  Fold Change Test Sample/Control Sample: 2.55
  Fold Up- or Down-Regulation Test Sample/Control Sample: 2.55

## CCC1CC(C(=O)NCCNC(=O)CCOCCOCCOCCOCCOCCOCCOCCOCCOCCOCCOCCOC)C[C@@H](O[C@@H]2OC(CO)[C@H](O)C(O[C@@H](CC3CCCCC3)C(=O)O)C2NC(C)=O)[C@@H]1OC1O[C@@H](C)[C@H](O)C(O)[C@@H]1O (stereo partly shown) [Compound A]
[2]
  CD44 expression: diminished
[3]
  phosphorylation of the enzyme eNOS: attenuated
[4]
  median survival time (MST): 39 days

Source: US20240269157A1, “COMPOSITIONS AND METHODS FOR OVERCOMING MICROENVIRONMENT-MEDIATED RESISTANCE VIA E-SELECTIN TARGETING” (GLYCOMIMETICS, INC., priority 2021, published 2024)
